Assay results as given in patent US20240148821A1, “PHARMACEUTICAL USE OF CYCLIC PEPTIDE COMPOUND” (CHUGAI SEIYAKU KABUSHIKI KAISHA, priority 2021, published 2024).
Bridge positions count the residues as written; N and C are the ends. Square brackets hold non-standard residues; d marks the D form. Peptide text beside a SMILES is read from it. * marks the point of attachment. hPhe(3-Cl-4-CF3) = N[C@@H](CCc1ccc(C(F)(F)F)c(Cl)c1)C(=O)O; hPhe(3-F,4-CF3) = N[C@@H](CCc1ccc(C(F)(F)F)c(F)c1)C(=O)O; NMeNle(6-CHF2) = CN[C@@H](CCCCC(F)F)C(=O)O; NMeAla(cPent) = CN[C@@H](CC1CCCC1)C(=O)O; Phe(3-I) = N[C@@H](Cc1cccc(I)c1)C(=O)O; NMeCha = CN[C@@H](CC1CCCCC1)C(=O)O; NMeChg = CN[C@H](C(=O)O)C1CCCCC1; NMeD = CN[C@@H](CC(=O)O)C(=O)O; NMeL = CN[C@@H](CC(C)C)C(=O)O; Chg = N[C@H](C(=O)O)C1CCCCC1; dNMeAbu = CC[C@@H](NC)C(=O)O; d(β3hA) = C[C@@H](N)CC(=O)O; Pip = O=C(O)[C@@H]1CCCCN1; dNMeS = CN[C@H](CO)C(=O)O; NMeA = CN[C@@H](C)C(=O)O; NMeAib = CNC(C)(C)C(=O)O; Nle = CCCC[C@H](N)C(=O)O; Piperidide = C1CCN(*)CC1; Ac5c = NC1(C(=O)O)CCCC1; Aze = O=C(O)[C@@H]1CCN1; Aib = CC(C)(N)C(=O)O; Isopentyl = CC(C)CC*; Sar = CNCC(=O)O

Key:
[1] = target: protein-protein interaction between Kras and SOS1 (biotin-tagged human Kras loaded with GDP, His-tagged human SOS1) (Homo sapiens (Human), UniProt P01116, G12D); test: Protein-protein interaction inhibition between Kras and SOS1 (KrasG12D-SOS PPI) using AlphaScreen; assay type: biochemical; details: AlphaScreen; biotin-tagged human Kras loaded with GDP, His-tagged human SOS1; read-out: KRAS G12D-SOS PPI IC50;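 further: kras produced in E. coli, Ni-coupled donor beads and streptavidin acceptor beads, excitation 680 nm with emission detected at 520–620 nm via singlet oxygen transfer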
[2] = system: Human pancreatic cancer cell line AsPC-1 (G12D mutation Kras); test: AsPC-1 cell growth inhibition (AsPC-1 CGI); assay type: cell-based; details: read-out: AsPC-1 cell growth inhibition, 50% growth inhibitory concentration (IC50 value); 96 hours, CellTiter-Glo, values classified in ranges
Method: Test compounds were serially dilated with dimethyl sulfoxide, and 200 nL was then dispensed to a U-bottom 96-well plate using Labcyte Echo. […] The cell suspension was dispensed to a. plate containing a test compound at 100 μL per well and incubated at 37° C. in a 5% carbon dioxide gas incubator. 96 hours later, 80 μL of CellTiter-Glo (Promega) was added to each well and fluorescence was measured.

Compound | IC50 [1] | IC50 [2]
CC[C@H](C)[C@@H]1NC(=O)[C@H](CC(C)C)N(C)C(=O)C[C@@H](C(=O)N2CCCCC2)N(C)C(=O)[C@H](CC(C)C)NC(=O)C(C)(C)N(C)C(=O)[C@@H]2CCCCCC[C@@H](C(=O)N(C)CC(=O)N[C@@H](Cc3cccc(I)c3)C(=O)N2)N(C)C(=O)CN(C)C(=O)CN(C)C1=O [Compound 1411, (1S,7S,10S,14S,17S,26S,32S)-32-[(3-iodophenyl)methyl]-7,14-diisobutyl-3,4,4,9,13,19,22,25,28-nonamethyl-17-[(1S)-1-methylpropyl]-10-(piperidine-1-carbonyl)-3,6,9,13,16,19,22,25,28,31,34-undecazabicyclo[24.8.6]tetracontane-2,5,8,12,15,18,21,24,27,30,33-undecone] | 0.082 µM | > 0.5 µM
CCCC[C@@H]1NC(=O)[C@H](Cc2cccc(I)c2)NC(=O)CN(C)C(=O)[C@H](CC2CCCC2)N(C)C(=O)[C@@H]2CCN2C(=O)[C@H](C)N(C)C(=O)[C@H]([C@@H](C)CC)NC(=O)[C@@H]2CCCCN2C(=O)C[C@@H](C(=O)N2CCCCC2)N(C)C(=O)[C@H](CC(C)C)NC(=O)C(C)(C)N(C)C1=O [Compound 1424] ([Pip]I[NMeA][Aze][NMeAla(cPent)][Sar][Phe(3-I)][Nle][NMeAib]L[NMeD]-Piperidide; lactam N-11) | 0.2 µM | > 0.5 µM
CC[C@@H]1C(=O)NC2(CCCC2)C(=O)N(C)[C@@H](C2CCCCC2)C(=O)N(C)[C@H](C(=O)N2CCCCC2)CC(=O)N(C)[C@@H](CC(C)C)C(=O)N[C@@H]([C@@H](C)CC)C(=O)N(C)CC(=O)N(C)CC(=O)N(C)[C@@H](CC2CCCCC2)C(=O)N(C)CC(=O)N[C@@H](CCc2ccc(C(F)(F)F)c(Cl)c2)C(=O)N1C [Compound 1435] ([NMeL]I[Sar][Sar][NMeCha][Sar][hPhe(3-Cl-4-CF3)][dNMeAbu][Ac5c][NMeChg][NMeD]-Piperidide; lactam N-11) | 0.0074 µM | > 0.5 µM
CC[C@H](C)[C@@H]1NC(=O)[C@H](CC(C)C)N(C)C(=O)C[C@@H](C(=O)N2CCCCC2)N(C)C(=O)[C@H](C2CCCCC2)N(C)C(=O)C2(CCCC2)NC(=O)[C@@H](COCCC(C)C)N(C)C(=O)[C@H](CCc2ccc(C(F)(F)F)c(Cl)c2)NC(=O)CN(C)C(=O)[C@H](CC2CCCCC2)N(C)C(=O)CN(C)C(=O)CN(C)C1=O [Compound 1436] ([NMeL]I[Sar][Sar][NMeCha][Sar][hPhe(3-Cl-4-CF3)][dNMeS](Isopentyl)[Ac5c][NMeChg][NMeD]-Piperidide; lactam N-11) | 0.039 µM | > 0.5 µM
CC[C@H](C)[C@@H]1NC(=O)[C@H](CC(C)C)N(C)C(=O)C[C@@H](C(=O)N2CCCCC2)N(C)C(=O)[C@H](C2CCCCC2)N(C)C(=O)C2(CCCC2)NC(=O)[C@@H](CO)N(C)C(=O)[C@H](CCc2ccc(C(F)(F)F)c(Cl)c2)NC(=O)CN(C)C(=O)[C@H](CC2CCCCC2)N(C)C(=O)CN(C)C(=O)CN(C)C1=O [Compound 1448] ([NMeL]I[Sar][Sar][NMeCha][Sar][hPhe(3-Cl-4-CF3)][dNMeS][Ac5c][NMeChg][NMeD]-Piperidide; lactam N-11) | 0.0011 µM | > 0.5 µM
CC[C@H](C)[C@@H]1NC(=O)[C@H](CC(C)C)N(C)C(=O)C[C@@H](C)NC(=O)[C@H](CC(C)C)N(C)C(=O)C(C)(C)NC(=O)[C@H](CC(C)C)N(C)C(=O)[C@H](CCc2ccc(C(F)(F)F)c(Cl)c2)NC(=O)CN(C)C(=O)[C@H](CCCCC(F)F)N(C)C(=O)CN(C)C(=O)CN(C)C1=O [Compound 1451] (cyclo([Aib][NMeL][d(β3hA)][NMeL]I[Sar][Sar][NMeNle(6-CHF2)][Sar][hPhe(3-Cl-4-CF3)][NMeL])) | 0.02 µM | > 0.5 µM
CC(C)C[C@H]1C(=O)N[C@@H](C2CCCCC2)C(=O)N(C)CC(=O)N(C)CC(=O)N(C)[C@@H](CCCCC(F)F)C(=O)N(C)CC(=O)N[C@@H](CCc2ccc(C(F)(F)F)c(F)c2)C(=O)N(C)[C@@H](CC(C)C)C(=O)NC(C)(C)C(=O)N(C)[C@@H](CC(C)C)C(=O)N[C@H](C)CC(=O)N1C [Compound 1460] (cyclo([Aib][NMeL][d(β3hA)][NMeL][Chg][Sar][Sar][NMeNle(6-CHF2)][Sar][hPhe(3-F,4-CF3)][NMeL])) | 0.13 µM | > 0.5 µM
